These results are taken from US7579335B2, “Androstane 17α-carbonate derivatives for use in the treatment of allergic and inflammatory conditions” (Glaxo Group Limited, priority 2005, dated 2009).

Molecules are shown by their SMILES.

In experiment [1] the target is T1, glucocorticoid receptor (Homo sapiens, UniProt P04150).
T1 sequence (P04150 1-777): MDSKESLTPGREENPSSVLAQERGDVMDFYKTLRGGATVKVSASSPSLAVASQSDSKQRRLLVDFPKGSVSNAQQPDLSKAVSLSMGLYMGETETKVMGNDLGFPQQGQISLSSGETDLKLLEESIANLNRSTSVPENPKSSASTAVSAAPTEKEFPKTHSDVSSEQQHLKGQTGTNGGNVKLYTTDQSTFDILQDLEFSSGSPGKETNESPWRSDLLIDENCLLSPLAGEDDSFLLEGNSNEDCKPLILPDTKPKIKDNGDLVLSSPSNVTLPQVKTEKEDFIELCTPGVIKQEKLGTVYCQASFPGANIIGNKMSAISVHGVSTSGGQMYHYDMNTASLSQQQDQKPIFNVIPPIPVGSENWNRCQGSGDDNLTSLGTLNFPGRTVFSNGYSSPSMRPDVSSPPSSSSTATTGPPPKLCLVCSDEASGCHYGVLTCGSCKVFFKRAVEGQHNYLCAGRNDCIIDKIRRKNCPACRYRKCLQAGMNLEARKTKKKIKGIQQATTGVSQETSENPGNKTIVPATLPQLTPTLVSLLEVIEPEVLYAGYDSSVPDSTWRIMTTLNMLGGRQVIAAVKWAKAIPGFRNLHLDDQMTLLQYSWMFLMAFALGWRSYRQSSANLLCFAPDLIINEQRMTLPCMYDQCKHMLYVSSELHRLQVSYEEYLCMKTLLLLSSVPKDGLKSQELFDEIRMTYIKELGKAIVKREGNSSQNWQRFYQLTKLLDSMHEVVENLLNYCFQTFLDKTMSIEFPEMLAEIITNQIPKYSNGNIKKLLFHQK
The experiment in a line: Assay for transrepression activity of the glucocorticoid agonists (NF-κB/ELAM-sPAP reporter, TNF stimulated). Format: cell-based. The following applies: A549 cells, NF-κB responsive ELAM promoter-sPAP reporter; compound 1 hour, then TNF 10 ng/ml for 16 hours; read-out: pEC50 transrepression (converted). The method, then:
Assay for Transrepression Activity of the Glucocorticoid Agonists
The functional assay based on that described by K. P. Ray et al., Biochem J. (1997), 328, 707-715 provides a measure of transrepressive activity of a glucocorticoid agonist. A549 cells stably transfected with a reporter gene containing the NF-κB responsive elements from the ELAM gene promoter coupled to sPAP (secreted alkaline phosphatase) are treated with test compounds at appropriate doses for 1 hour at 37° C. The cells are then stimulated with tumour necrosis factor (TNF, 10 ng/ml) for 16 hours, at which time the amount of alkaline phosphatase produced is measured by a standard colourimetric assay. Dose response curves were constructed from which EC50 values were estimated.

Experiment [2] addresses T1, glucocorticoid receptor. The experiment in a line: Assay for transactivation activity of the glucocorticoid agonists (MMTV-LTR renilla luciferase reporter). It counts as cell-based. The conditions noted are these: A549, A549 cells, 6 hour at 37° C., read-out: maximal response relative to Dexamethasone (100%), transactivation. As to the method: Assay for Transactivation Activity of the Glucocorticoid Agonists
The functional assay based on that described by R. J. H. Austin et al., Eur Resp J. (2002), 20, 1386-1392 measures the ability of compounds to directly transactivate gene expression. A549 cells stably transfected with a reporter gene containing the glucocorticoid responsive region of the mouse mammary tumour virus long terminal repeat (MMTV-LTR) coupled to renilla luciferase were treated with test compounds at appropriate doses for 6 hour at 37° C. The amount of luciferase activity present within the cells is then determined by measuring the light emitted following incubation with a suitable substrate. Dose response curves were constructed from which EC50 values were estimated and from which maximal responses are calculated relative to Dexamethasone (100%).
On the technique in general: A reporter such as luciferase makes a cellular process visible.

In the case of `CC(C)C(OC(=O)O[C@]1(C(=O)OCC#N)[C@H](C)C[C@H]2[C@@H]3C[C@H](F)C4=CC(=O)C=C[C@]4(C)[C@@]3(F)[C@@H](O)C[C@@]21C)C(C)C` [Example 4, Cyanomethyl (6α,11β,16α,17α)-6,9-difluoro-11-hydroxy-16-methyl-17-[({[2-methyl-1-(1-methylethyl)propyl]oxy}carbonyl)oxy]-3-oxoandrosta-1,4-diene-17-carboxylate], the EC50 on glucocorticoid receptor [1] is less than 0.316 nM.
`CCCC(CCC)OC(=O)O[C@]1(C(=O)OCC#N)[C@H](C)C[C@H]2[C@@H]3C[C@H](F)C4=CC(=O)C=C[C@]4(C)[C@@]3(F)[C@@H](O)C[C@@]21C` [Example 21, Cyanomethyl (6α,11β16α,17α)-6,9-difluoro-11-hydroxy-16-methyl-3-oxo-17-({[(1-propylbutyl)oxy]carbonyl}oxy)androsta-1,4-diene-17-carboxylate]: the Emax on glucocorticoid receptor [2] is less than 40%.
On the same count and under the same terms, then `CCCC(OC(=O)O[C@]1(C(=O)OCC#N)[C@H](C)C[C@H]2[C@@H]3C[C@H](F)C4=CC(=O)C=C[C@]4(C)[C@@]3(F)[C@@H](O)C[C@@]21C)C(C)C` (stereo partly drawn) [Example 24, Cyanomethyl (6α,11β,16α,17α)-6,9-difluoro-11-hydroxy-16-methyl-17-[({[1-(1-methylethyl)butyl]oxy}carbonyl)oxy]-3-oxoandrosta-1,4-diene-17-carboxylate], with less than 40%.
Turning to `CC1CC2C3CC(F)C4=CC(=O)C=CC4(C)C3(F)C(O)CC2(C)C1(OC(=O)OC1CC2CCC1(C)C2(C)C)C(=O)OCC#N` (stereo not drawn) [Example 22, Cyanomethyl (6α,11β,16α,17α)-6,9-difluoro-11-hydroxy-16-methyl-3-oxo-17-[({[(1RS,2RS,4RS)-1,7,7-trimethylbicyclo[2.2.1]hept-2-yl]oxy}carbonyl)oxy]androsta-1,4-diene-17-carboxylate], the Emax on glucocorticoid receptor [2] was less than 40%.
In the case of `CCC(CC)COC(=O)O[C@]1(C(=O)OCC#N)[C@H](C)C[C@H]2[C@@H]3C[C@H](F)C4=CC(=O)C=C[C@]4(C)[C@@]3(F)[C@@H](O)C[C@@]21C` [Example 5, Cyanomethyl (6α,11β,16α,17α)-17-({[(2-ethylbutyl)oxy]carbonyl}oxy)-6,9-difluoro-11-hydroxy-16-methyl-3-oxoandrosta-1,4-diene-17-carboxylate], the Emax at glucocorticoid receptor [2] is less than 40%. Further, the EC50 on glucocorticoid receptor [1] was less than 0.316 nM.
For `CC(C)C1CCC(OC(=O)O[C@]2(C(=O)OCC#N)[C@H](C)C[C@H]3[C@@H]4C[C@H](F)C5=CC(=O)C=C[C@]5(C)[C@@]4(F)[C@@H](O)C[C@@]32C)CC1` (single isomer, unassigned) [Example 11B, Cyanomethyl (6α,11β,16α,17α)-6,9-difluoro-11-hydroxy-16-methyl-17-[({[4-(1-methylethyl)cyclohexyl]oxy}carbonyl)oxy]-3-oxoandrosta-1,4-diene-17-carboxylate], the EC50 at glucocorticoid receptor [1] was less than 0.316 nM.
Take `CCC(OC(=O)O[C@]1(C(=O)OCC#N)[C@H](C)C[C@H]2[C@@H]3C[C@H](F)C4=CC(=O)C=C[C@]4(C)[C@@]3(F)[C@@H](O)C[C@@]21C)C(C)C` (stereo partly drawn) [Example 7, Cyanomethyl (6α,11β,16α,17α)-17-({[(1-ethyl-2-methylpropyl)oxy]carbonyl}oxy)-6,9-difluoro-11-hydroxy-16-methyl-3-oxoandrosta-1,4-diene-17-carboxylate]: at glucocorticoid receptor [2], the Emax is less than 40%. For the same compound, on glucocorticoid receptor [1], the EC50 is less than 0.316 nM.
`CC[C@H]1CC[C@H](OC(=O)O[C@]2(C(=O)OCC#N)[C@H](C)C[C@H]3[C@@H]4C[C@H](F)C5=CC(=O)C=C[C@]5(C)[C@@]4(F)[C@@H](O)C[C@@]32C)CC1` (relative stereo) [Example 19, Cyanomethyl (6α,11β,16α,17α)-17-({[(trans-4-ethylcyclohexyl)oxy]carbonyl}oxy)-6,9-difluoro-11-hydroxy-16-methyl-3-oxoandrosta-1,4-diene-17-carboxylate]: on glucocorticoid receptor [2], the Emax was less than 40%.
As for `C[C@@H]1C[C@H]2[C@@H]3C[C@H](F)C4=CC(=O)C=C[C@]4(C)[C@@]3(F)[C@@H](O)C[C@]2(C)[C@@]1(OC(=O)OCC(C)(C)C)C(=O)OCC#N` [Example 6, Cyanomethyl (6α,11β,16α,17α)-17-({[(2,2-dimethylpropyl)oxy]carbonyl}oxy)-6,9-difluoro-11-hydroxy-16-methyl-3-oxoandrosta-1,4-diene-17-carboxylate], the EC50 on glucocorticoid receptor [1] was less than 0.316 nM.
On to `CCC(CC)OC(=O)O[C@]1(C(=O)OCC#N)[C@H](C)C[C@H]2[C@@H]3C[C@H](F)C4=CC(=O)C=C[C@]4(C)[C@@]3(F)[C@@H](O)C[C@@]21C` [Example 3, Cyanomethyl (6α,11β,16α,17α)-17-({[(1-ethylpropyl)oxy]carbonyl}oxy)-6,9-difluoro-11-hydroxy-16-methyl-3-oxoandrosta-1,4-diene-17-carboxylate], for which the EC50 at glucocorticoid receptor [1] is less than 0.316 nM.
Take `CC(C)C(C)OC(=O)O[C@]1(C(=O)OCC#N)[C@H](C)C[C@H]2[C@@H]3C[C@H](F)C4=CC(=O)C=C[C@]4(C)[C@@]3(F)[C@@H](O)C[C@@]21C` (stereo partly drawn) [Example 8, Cyanomethyl (6α,11β,16α,17α)-17-({[(1,2-dimethylpropyl)oxy]carbonyl}oxy)-6,9-difluoro-11-hydroxy-16-methyl-3-oxoandrosta-1,4-diene-17-carboxylate]: the Emax at glucocorticoid receptor [2] is less than 40%. Further, the EC50 at glucocorticoid receptor [1] is less than 0.316 nM.
Regarding `CCC(C)(C)OC(=O)O[C@]1(C(=O)OCC#N)[C@H](C)C[C@H]2[C@@H]3C[C@H](F)C4=CC(=O)C=C[C@]4(C)[C@@]3(F)[C@@H](O)C[C@@]21C` [Example 2, Cyanomethyl (6α,11β,16α,17α)-17-({[(1,1-dimethylpropyl)oxy]carbonyl}oxy)-6,9-difluoro-11-hydroxy-16-methyl-3-oxoandrosta-1,4-diene-17-carboxylate], the EC50 at glucocorticoid receptor [1] was less than 0.1 nM.
`CC(OC(=O)O[C@]1(C(=O)OCC#N)[C@H](C)C[C@H]2[C@@H]3C[C@H](F)C4=CC(=O)C=C[C@]4(C)[C@@]3(F)[C@@H](O)C[C@@]21C)C(C)(C)C` (stereo partly drawn) [Example 23, Cyanomethyl (6α,11β,16α,17α)-6,9-difluoro-11-hydroxy-16-methyl-3-oxo-17-({[(1,2,2-trimethylpropyl)oxy]carbonyl}oxy)androsta-1,4-diene-17-carboxylate]: at glucocorticoid receptor [2], the Emax is less than 40%.
As to `C[C@@H]1C[C@H]2[C@@H]3C[C@H](F)C4=CC(=O)C=C[C@]4(C)[C@@]3(F)[C@@H](O)C[C@]2(C)[C@@]1(OC(=O)OC(C)(C)C)C(=O)OCC#N` [Example 1, Cyanomethyl (6α,11β,16α,17α)-17-({[(1,1-dimethylethyl)oxy]carbonyl}oxy)-6,9-difluoro-11-hydroxy-16-methyl-3-oxoandrosta-1,4-diene-17-carboxylate], the EC50 on glucocorticoid receptor [1] is less than 0.1 nM.
On to `CC[C@H]1CC[C@@H](OC(=O)O[C@]2(C(=O)OCC#N)[C@H](C)C[C@H]3[C@@H]4C[C@H](F)C5=CC(=O)C=C[C@]5(C)[C@@]4(F)[C@@H](O)C[C@@]32C)CC1` (relative stereo) [Example 20, Cyanomethyl (6α,11β,16α,17α)-17-({[(cis-4-ethylcyclohexyl)oxy]carbonyl}oxy)-6,9-difluoro-11-hydroxy-16-methyl-3-oxoandrosta-1,4-diene-17-carboxylate], for which the Emax at glucocorticoid receptor [2] was less than 40%.
Take `C[C@@H]1C[C@H]2[C@@H]3C[C@H](F)C4=CC(=O)C=C[C@]4(C)[C@@]3(F)[C@@H](O)C[C@]2(C)[C@@]1(OC(=O)OC1CCCC1)C(=O)OCC#N` [Example 9, Cyanomethyl (6α,11β,16α,17α)-17-{[(cyclopentyloxy)carbonyl]oxy}-6,9-difluoro-11-hydroxy-16-methyl-3-oxoandrosta-1,4-diene-17-carboxylate]: the Emax at glucocorticoid receptor [2] was less than 40%. For the same compound, the EC50 at glucocorticoid receptor [1] was less than 0.316 nM.
